Test results taken from US20260138976A1 (Hoffmann-La Roche Inc., priority 2022, published 2026).
pEC50, pIC50: −log10 of the molar value.

Key:
[1] = target: T1, DGKα (hDGKalpha(1-735)-N-His) (Homo sapiens, UniProt P23743); test: In vitro DGK inhibition assay, DGKalpha ADP Glo (in house); type: biochemical; details: 4 nM DGKα, 25 μM ATP, 125 uM DLG in liposomes, 1 hour reaction
T1 construct: hDGKalpha(1-735)-N-His; His (N); made in house; host or cells: Sf21 insect cells (baculovirus)
Method: DGKα and ζ kinases use ATP to phosphorylate the substrate 1,2-dilauroyl-sn-glycerol (DLG, incorporated in the liposomes). ATP is converted to ADP as a result of this enzymatic reaction. After the kinase reaction, an ATP-depletion reagent is added to terminate the kinase reaction and deplete any remaining ATP, leaving only ADP. Second, a detection reagent is added to simultaneously convert ADP to ATP and allow the newly synthesized ATP to be converted to light using a coupled luciferase/luciferin reaction.
Full length DGKα and ζ were expressed in Sf21 insect cells by infecting the cells with the baculovirus stock at MOI of 2. Purification of both enzymes was performed as previously described by Takahashi et al., PeerJ, 2018 (Takahashi, D.; Sakane, F. Expression and purification of human diacylglycerol 5 kinase alpha from baculovirus-infected insect cells for structural studies. PeerJ2018, 6, No. e5449).
A concentrated liposome solution was prepared in assay buffer without DTT and BSA: 2 mM of DLG in 21 mM of total liposome (2 mM DLG/8 mM PS/11 mM PC). The reaction mixtures contain the assay buffer with a final DLG concentration of 125 uM ATP concentrations of 25 μM (for DGKA assay) or 50 μM (for DGKZ assay). The reactions were started by addition of DGK α and ζ kinases at 4 nM and 2 nM final concentrations, respectively. After 1 hour reaction, the amount of ADP formed was detected with the ADP-Glo kinase assay (Promega) according to the manufacturer instructions. Compounds were added in 11-points dose response, starting at […], 1:3 dilutions, with a final DMSO concentration of 2%. The multidrop combi was used as a liquid handler and luminescence was read with 0.5 s by the envision reader (PE).

[2] = target: T2, DGKζ (hDGKzeta(1-928)-N-His) (Homo sapiens, UniProt Q13574); test: In vitro DGK inhibition assay, DGKzeta ADP Glo (in house); type: biochemical; details: 2 nM DGKζ, 50 μM ATP, 125 uM DLG in liposomes, 1 hour reaction
T2 construct: hDGKzeta(1-928)-N-His; His (N); made in house; host or cells: Sf21 insect cells (baculovirus)
T2 sequence (Q13574 whole entry): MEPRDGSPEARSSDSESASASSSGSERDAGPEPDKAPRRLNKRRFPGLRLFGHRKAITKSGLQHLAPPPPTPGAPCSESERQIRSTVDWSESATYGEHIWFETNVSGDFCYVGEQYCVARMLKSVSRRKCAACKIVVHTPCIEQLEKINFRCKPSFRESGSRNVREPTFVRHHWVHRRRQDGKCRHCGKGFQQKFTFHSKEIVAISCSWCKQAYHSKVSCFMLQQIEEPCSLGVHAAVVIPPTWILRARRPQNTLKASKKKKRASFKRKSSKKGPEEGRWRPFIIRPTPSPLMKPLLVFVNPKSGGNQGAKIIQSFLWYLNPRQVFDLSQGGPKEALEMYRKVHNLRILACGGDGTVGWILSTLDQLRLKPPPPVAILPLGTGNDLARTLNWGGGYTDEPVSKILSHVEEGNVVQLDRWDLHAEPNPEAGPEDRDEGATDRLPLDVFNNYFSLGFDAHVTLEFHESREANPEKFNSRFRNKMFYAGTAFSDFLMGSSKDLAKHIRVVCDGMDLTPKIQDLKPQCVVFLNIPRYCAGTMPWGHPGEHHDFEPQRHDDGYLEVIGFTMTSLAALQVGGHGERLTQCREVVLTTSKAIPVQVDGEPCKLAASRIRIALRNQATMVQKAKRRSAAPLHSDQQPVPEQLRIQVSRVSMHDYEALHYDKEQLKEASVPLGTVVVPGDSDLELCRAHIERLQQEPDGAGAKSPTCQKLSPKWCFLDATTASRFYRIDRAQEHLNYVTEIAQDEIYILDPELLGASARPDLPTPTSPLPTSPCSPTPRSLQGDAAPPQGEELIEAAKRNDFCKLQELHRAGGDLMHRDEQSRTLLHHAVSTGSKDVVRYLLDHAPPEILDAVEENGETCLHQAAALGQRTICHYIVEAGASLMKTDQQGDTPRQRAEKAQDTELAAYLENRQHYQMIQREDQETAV
Outline: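 Full-length His-tagged human DGKα (4 nM) or DGKζ (2 nM), expressed in Sf21 cells, phosphorylated 125 µM DLG in PS/PC liposomes with ATP at 25 µM (α) or 50 µM (ζ) for 1 h. ADP was measured by ADP-Glo luminescence. Compounds were tested as 11-point 1:3 series in 2% DMSO.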

primary human T-cells = test: Proliferation assay (5 days, CellTiter-Glo, CD3-stimulated T-cells); type: cell-based; details: for Emax proliferation (% activation): CD3 condition, normalised to DMSO (neutral) and 20 μM reference compound A1 = 100%; for pEC50: Homo sapiens, T-cell, 120 h, CD3-stimulated primary human T-cells, 5 days, CellTiter-Glo, fitted sigmoidal curve, read-out: Tcell Proliferation CD3 EC50
Outline: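 Expanded primary human T-cells, 100 k cells/well, were stimulated with plate-coated CD3 antibody (donor-titrated) and given compound in a 5 or 6 pt dose response from 20 μM or 10 μM final top, 0.2% DMSO final. ATP was read by CellTiter-Glo after 5 days. EC50 and Emax were reported as % of 20 μM reference compound A1.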

T1 sequence (P23743 whole entry): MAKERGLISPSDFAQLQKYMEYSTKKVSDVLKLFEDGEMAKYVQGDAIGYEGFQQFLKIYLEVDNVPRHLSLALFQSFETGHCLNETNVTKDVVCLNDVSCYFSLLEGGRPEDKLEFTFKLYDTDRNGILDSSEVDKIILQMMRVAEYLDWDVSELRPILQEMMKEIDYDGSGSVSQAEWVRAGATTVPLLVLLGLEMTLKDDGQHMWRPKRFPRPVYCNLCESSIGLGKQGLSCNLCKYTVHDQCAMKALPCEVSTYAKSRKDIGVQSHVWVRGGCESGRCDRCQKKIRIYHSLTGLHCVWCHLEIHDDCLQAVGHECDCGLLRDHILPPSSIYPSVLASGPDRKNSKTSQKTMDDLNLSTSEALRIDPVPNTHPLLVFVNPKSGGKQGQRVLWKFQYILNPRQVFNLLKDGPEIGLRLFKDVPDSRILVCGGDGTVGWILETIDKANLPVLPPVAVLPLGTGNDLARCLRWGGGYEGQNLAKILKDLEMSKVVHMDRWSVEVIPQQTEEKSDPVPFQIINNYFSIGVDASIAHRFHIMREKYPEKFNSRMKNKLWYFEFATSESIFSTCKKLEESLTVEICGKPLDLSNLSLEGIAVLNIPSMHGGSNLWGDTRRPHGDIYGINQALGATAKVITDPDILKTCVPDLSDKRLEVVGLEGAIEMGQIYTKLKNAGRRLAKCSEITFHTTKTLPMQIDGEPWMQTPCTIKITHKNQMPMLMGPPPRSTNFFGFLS

Structure (SMILES)	pIC50 [1]	pIC50 [2]	Emax proliferation (% activation) (primary human T-cells)	pEC50 (primary human T-cells)
CC1(Nc2nnc(-c3cc4c(cc3F)S(=O)(=O)C[C@H](N)C(=O)N4Cc3ccc(-c4noc(C(F)(F)F)n4)cc3)o2)CC(F)(F)C1 [Example 3, (3R)-3-amino-7-[5-[(3,3-difluoro-1-methyl-cyclobutyl)amino]-1,3,4-oxadiazol-2-yl]-8-fluoro-1,1-dioxo-5-[[4-[5-(trifluoromethyl)-1,2,4-oxadiazol-3-yl]phenyl]methyl]-2,3-dihydro-1λ^6,5-benzothiazepin-4-one]	4.99	5.89	165	6.10
N[C@H]1CS(=O)(=O)c2cc(F)c(-c3nnc(N4CCOC5(CC5)C4)o3)cc2N(Cc2ccc(-c3noc(C(F)(F)F)n3)cc2)C1=O [Example 4, (3R)-3-amino-8-fluoro-7-[5-(4-oxa-7-azaspiro[2.5]octan-7-yl)-1,3,4-oxadiazol-2-yl]-1,1-dioxo-5-[[4-[5-(trifluoromethyl)-1,2,4-oxadiazol-3-yl]phenyl]methyl]-2,3-dihydro-1λ^6,5-benzothiazepin-4-one]	5.47	6.90	207	7.08
N[C@H]1CS(=O)(=O)c2cc(F)c(-c3nnc(N4CCC(F)(F)CC4)o3)cc2N(Cc2ccc(-c3noc(C(F)(F)F)n3)cc2)C1=O [Example 5, (3R)-3-amino-7-[5-(4,4-difluoro-1-piperidyl)-1,3,4-oxadiazol-2-yl]-8-fluoro-1,1-dioxo-5-[[4-[5-(trifluoromethyl)-1,2,4-oxadiazol-3-yl]phenyl]methyl]-2,3-dihydro-1λ^6,5-benzothiazepin-4-one]	6.20	7.17	200	6.92
COc1ccc(-c2ccc(CN3C(=O)[C@@H](N)CS(=O)(=O)c4cc(F)c(-c5noc(C6(N)COC6)n5)cc43)cc2)cc1 [Example 8, (3R)-3-amino-7-[5-(3-aminooxetan-3-yl)-1,2,4-oxadiazol-3-yl]-8-fluoro-5-[[4-(4-methoxyphenyl)phenyl]methyl]-1,1-dioxo-2,3-dihydro-1λ^6,5-benzothiazepin-4-one]	5.15	6.86	143	5.51
N[C@H]1CS(=O)(=O)c2cc(F)c(-c3noc(C4(N)COC4)n3)cc2N(Cc2ccc(-c3noc(C(F)(F)F)n3)cc2)C1=O [Example 9, (3R)-3-amino-7-[5-(3-aminooxetan-3-yl)-1,2,4-oxadiazol-3-yl]-8-fluoro-1,1-dioxo-5-[[4-[5-(trifluoromethyl)-1,2,4-oxadiazol-3-yl]phenyl]methyl]-2,3-dihydro-1λ^6,5-benzothiazepin-4-one]	5.48	6.33	163	6.30
N[C@H]1CS(=O)(=O)c2cc(F)c(-c3noc(C4(N)COC4)n3)cc2N(Cc2ccc(-c3ccc(C(F)(F)F)cn3)cc2)C1=O [Example 10, (3R)-3-amino-7-[5-(3-aminooxetan-3-yl)-1,2,4-oxadiazol-3-yl]-8-fluoro-1,1-dioxo-5-[[4-[5-(trifluoromethyl)-2-pyridyl]phenyl]methyl]-2,3-dihydro-1λ^6,5-benzothiazepin-4-one]	5.29	6.55	133	5.72
N[C@H]1CS(=O)(=O)c2cc(F)c(-c3noc(N4CCOC5(CC5)C4)n3)cc2N(Cc2ccc(-c3ccc(C(F)(F)F)cc3)nc2)C1=O [Example 11, (3R)-3-amino-8-fluoro-7-[5-(4-oxa-7-azaspiro[2.5]octan-7-yl)-1,2,4-oxadiazol-3-yl]-1,1-dioxo-5-[[6-[4-(trifluoromethyl)phenyl]-3-pyridyl]methyl]-2,3-dihydro-1λ^6,5-benzothiazepin-4-one]	< 5.20	6.16	136	5.73
N[C@H]1CS(=O)(=O)c2cc(F)c(-c3noc(N4CCOC(F)(F)C4)n3)cc2N(Cc2ccc(-c3noc(C(F)(F)F)n3)nc2)C1=O [Example 12, (3R)-3-amino-7-[5-(2,2-difluoromorpholin-4-yl)-1,2,4-oxadiazol-3-yl]-8-fluoro-1,1-dioxo-5-[[6-[5-(trifluoromethyl)-1,2,4-oxadiazol-3-yl]-3-pyridyl]methyl]-2,3-dihydro-1λ^6,5-benzothiazepin-4-one]	5.52	6.77	125	5.41
N[C@H]1CS(=O)(=O)c2cc(F)c(-c3noc(N4CCOC(F)(F)C4)n3)cc2N(Cc2ccc(-c3ccc(C(F)(F)F)cc3)nc2)C1=O [Example 13, (3R)-3-amino-7-[5-(2,2-difluoromorpholin-4-yl)-1,2,4-oxadiazol-3-yl]-8-fluoro-1,1-dioxo-5-[[6-[4-(trifluoromethyl)phenyl]-3-pyridyl]methyl]-2,3-dihydro-1λ^6,5-benzothiazepin-4-one]	< 4.20	6.11	84	5.97
N[C@H]1CS(=O)(=O)c2cc(F)c(-c3noc(N4CCOC5(CC5)C4)n3)cc2N(Cc2ccc(-c3noc(C(F)(F)F)n3)nc2)C1=O [Example 14, (3R)-3-amino-8-fluoro-7-[5-(4-oxa-7-azaspiro[2.5]octan-7-yl)-1,2,4-oxadiazol-3-yl]-1,1-dioxo-5-[[6-[5-(trifluoromethyl)-1,2,4-oxadiazol-3-yl]-3-pyridyl]methyl]-2,3-dihydro-1λ^6,5-benzothiazepin-4-one]	4.43	6.84	96	5.41
N#CC1(c2nc(-c3cc4c(cc3F)S(=O)(=O)C[C@H](N)C(=O)N4Cc3ccc(-c4noc(C(F)(F)F)n4)cc3)no2)CC1 [Example 16, 1-[3-[(3R)-3-amino-8-fluoro-1,1,4-trioxo-5-[[4-[5-(trifluoromethyl)-1,2,4-oxadiazol-3-yl]phenyl]methyl]-2,3-dihydro-1λ^6,5-benzothiazepin-7-yl]-1,2,4-oxadiazol-5-yl]cyclopropanecarbonitrile]	5.76	6.55	228	6.94
N#CC1(c2nc(-c3cc4c(cc3F)S(=O)(=O)C[C@H](N)C(=O)N4Cc3ccc(-c4ccc(C(F)(F)F)cn4)cc3)no2)CC1 [Example 17]	5.49	6.33	167	7.30
N[C@H]1CS(=O)(=O)c2cc(F)c(-c3noc(C4(CO)CCCO4)n3)cc2N(Cc2ccc(-c3noc(C(F)(F)F)n3)cc2)C1=O (stereo partly drawn) [Example 18, (3R)-3-amino-8-fluoro-7-[5-[2-(hydroxymethyl)tetrahydrofuran-2-yl]-1,2,4-oxadiazol-3-yl]-1,1-dioxo-5-[[4-[5-(trifluoromethyl)-1,2,4-oxadiazol-3-yl]phenyl]methyl]-2,3-dihydro-1λ^6,5-benzothiazepin-4-one]	5.41	6.82	275	6.35
CC(C)(C)c1nnc(-c2ccc(CN3C(=O)[C@@H](N)CS(=O)(=O)c4ccc(-c5nnc(C(C)(C)C)o5)cc43)cc2)o1 [Example 19, (3R)-3-amino-7-(5-tert-butyl-1,3,4-oxadiazol-2-yl)-5-[[4-(5-tert-butyl-1,3,4-oxadiazol-2-yl)phenyl]methyl]-1,1-dioxo-2,3-dihydro-1λ^6,5-benzothiazepin-4-one]	4.74	6.11	100	5.44
